Source: ChEMBL document CHEMBL1145238, “Selective PPARgamma modulators with improved pharmacological profiles” (Bioorg Med Chem Lett, 2005)
Each block holds one compound with its values, some of them ahead of it.

Experiments:
Cytochrome P450 2C9 = Cytochrome P450 2C9 (Homo sapiens, UniProt P11712); experiment: Inhibitory concentration against Cytochrome P450 2C9 in rats
[1] = molecular target: T1, Peroxisome proliferator-activated receptor gamma (Homo sapiens, UniProt P37231); experiment: Inhibition of human peroxisome proliferator activated receptor gamma binding
T1 sequence (P37231 whole entry): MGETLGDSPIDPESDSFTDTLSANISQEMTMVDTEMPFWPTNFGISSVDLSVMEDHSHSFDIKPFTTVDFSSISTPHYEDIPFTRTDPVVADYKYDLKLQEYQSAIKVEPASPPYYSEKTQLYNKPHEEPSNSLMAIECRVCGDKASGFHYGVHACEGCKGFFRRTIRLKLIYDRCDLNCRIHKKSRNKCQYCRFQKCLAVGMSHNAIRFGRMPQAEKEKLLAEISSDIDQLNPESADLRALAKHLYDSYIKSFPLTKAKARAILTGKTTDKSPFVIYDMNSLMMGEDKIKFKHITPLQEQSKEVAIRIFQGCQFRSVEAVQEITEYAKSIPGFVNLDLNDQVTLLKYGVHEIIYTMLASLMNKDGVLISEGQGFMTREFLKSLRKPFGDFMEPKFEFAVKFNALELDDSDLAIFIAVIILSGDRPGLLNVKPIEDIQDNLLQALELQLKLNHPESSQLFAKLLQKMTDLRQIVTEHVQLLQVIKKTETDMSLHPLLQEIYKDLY

[2] = molecular target: T1, Peroxisome proliferator-activated receptor gamma
Description: Maximal intrinsic response against peroxisome proliferator activated receptor gamma transactivation

[3] = Area under plasma concentration time curve when administered to Sprague Dawley rats after once daily dosing for two weeks; type: ADME; settings: rat
[4] = Area under plasma concentration time curve when administered to db/db mice at 30 mg/kg dose; type: ADME, organism-based; set-up: dose 30 mg/kg; settings: mouse, in vivo
[5] = mouse, in vivo, 10 mg/kg
Description: Area under plasma concentration time curve when administered to db/db mice at 10 mg/kg dose; Range = 250-700 uMh

Cytochrome P450 2C9, sequence (P11712 whole entry): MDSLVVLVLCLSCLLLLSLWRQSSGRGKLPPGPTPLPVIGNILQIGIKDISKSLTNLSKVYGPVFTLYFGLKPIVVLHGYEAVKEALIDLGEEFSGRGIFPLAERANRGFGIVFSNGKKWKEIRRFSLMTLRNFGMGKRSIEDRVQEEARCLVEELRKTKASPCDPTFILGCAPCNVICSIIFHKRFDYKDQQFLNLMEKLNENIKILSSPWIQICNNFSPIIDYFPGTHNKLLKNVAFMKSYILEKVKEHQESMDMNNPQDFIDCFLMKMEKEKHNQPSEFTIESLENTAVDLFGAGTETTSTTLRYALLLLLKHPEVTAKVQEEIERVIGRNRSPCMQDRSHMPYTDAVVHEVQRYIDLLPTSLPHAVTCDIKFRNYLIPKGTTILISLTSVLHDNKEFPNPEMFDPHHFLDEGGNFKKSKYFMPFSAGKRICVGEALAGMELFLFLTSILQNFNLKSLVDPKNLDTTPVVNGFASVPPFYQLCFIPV

SMILES: Cc1[nH]c2ccc(OC(F)(F)F)cc2c1Cc1cccc(O[C@@H](C)C(=O)O)c1
- IC50 (Cytochrome P450 2C9): 50 nM

SMILES: COc1ccc(C(=O)n2c(C)c(Cc3cccc(OCC#N)c3)c3cc(OC(F)(F)F)ccc32)cc1
- IC50 [1]: 42 nM
- EC50 [2]: 16 nM

SMILES: COc1ccc(-n2c(C)c(Cc3cccc(O[C@@H](C)C(=O)O)c3)c3cc(OC(F)(F)F)ccc32)cc1
- IC50 [1]: 1 nM
- EC50 [2]: 3 nM

SMILES: CN1C(=O)SC(Cc2ccc(OCCN(C)c3ccccn3)cc2)C1=O (stereo not given)
- IC50 [1]: > 50000 nM
- EC50 [2]: > 3000 nM

SMILES: COc1ccc2c(-n3c(C)c(Cc4cc(O[C@H](C)C(=O)O)ccc4Cl)c4cc(OC(F)(F)F)ccc43)noc2c1
- IC50 [1]: 2 nM
- AUC [3]: 1030 uMh
- AUC [4]: 660 uMh
- EC50 [2]: 3 nM

SMILES: COc1ccc2ncc(-n3c(C)c(Cc4cccc(O[C@@H](C)C(=O)O)c4)c4cc(OC(F)(F)F)ccc43)cc2c1
- IC50 [1]: 29 nM
- EC50 [2]: 49 nM

SMILES: COc1ccc2nc(-n3c(C)c(Cc4cccc(O[C@@H](C)C(=O)O)c4)c4cc(OC(F)(F)F)ccc43)ccc2c1
- IC50 [1]: 135 nM

SMILES: Cc1c(Oc2ccc(Cl)c(O[C@@H](C)C(=O)O)c2)c2cc(OC(F)(F)F)ccc2n1-c1noc2cc(Cl)ccc12
- IC50 [1]: 1 nM
- EC50 [2]: 3 nM

SMILES: C#CCOc1cccc(Cc2c(C)n(C(=O)c3ccc(OC)cc3)c3ccc(OC(F)(F)F)cc23)c1
- IC50 [1]: 62 nM
- EC50 [2]: 31 nM

SMILES: Cc1c(Cc2cccc(O[C@@H](C)C(=O)O)c2)c2cc(OC(F)(F)F)ccc2n1-c1ccccn1
- IC50 [1]: 466 nM

SMILES: CN(CCOc1ccc(CC2SC(=O)NC2=O)cc1)c1ccccn1 (stereo not given) [ROSIGLITAZONE]
- AUC [3]: 2700 uMh
- AUC [5]: 700 uMh

Next, values leading:

- IC50 [1]: 33 nM
- EC50 [2]: 195 nM
SMILES: Cc1c(Oc2cccc(O[C@@H](C)C(=O)O)c2)c2cc(OC(F)(F)F)ccc2n1-c1noc2cc(Cl)ccc12

- IC50 [1]: 109 nM
- EC50 [2]: 114 nM
SMILES: Cc1c(Oc2cc(Cl)cc(O[C@@H](C)C(=O)O)c2)c2cc(OC(F)(F)F)ccc2n1-c1noc2cc(Cl)ccc12

- IC50 [1]: 5 nM
- EC50 [2]: 3 nM
SMILES: Cc1c(Oc2cc(O[C@@H](C)C(=O)O)ccc2Cl)c2cc(OC(F)(F)F)ccc2n1-c1noc2cc(Cl)ccc12

- IC50 [1]: 20 nM
- EC50 [2]: 39 nM
SMILES: CCCc1ccc(Oc2c(C)n(-c3noc4cc(Cl)ccc34)c3ccc(OC(F)(F)F)cc23)cc1O[C@@H](C)C(=O)O

- IC50 [1]: 641 nM
SMILES: CCCc1c(Oc2c(C)n(-c3noc4cc(Cl)ccc34)c3ccc(OC(F)(F)F)cc23)cccc1O[C@@H](C)C(=O)O
